Measurements reported in article PMC6770063, “Utilizing the Combination of Binding Kinetics and Micro-Pharmacokinetics Link in Vitro α-Glucosidase Inhibition to in Vivo Target Occupancy” (Biomolecules, 2019).

Key:
[1] = test system: α-Glucosidase (Saccharomyces cerevisiae); test: Binding kinetics by reaction progress curve analysis; format: biochemical; settings: for binding mechanism: kobs versus concentration hyperbolic; for Dissociation Half-Life: ln2 divided by koff (progress curve); for time dependence of inhibition: preincubation and progress curves; for Ki: read-out: Ki* (final equilibrium dissociation constant, true affinity)
Description: Progress curves were fitted to the equation (Equation (1)) described by Williams and Morrison to calculate kobs values for slow binding (i.e., time-dependent) inhibition. (1) A=vs×t+(vi−vs)(1−e^−kobs×t/kobs)+A0 where A is the absorbance; vi and vs are initial and steady-state velocities (expressed in A/time), respectively; t is time; kobs is the pseudo first order rate constant for the approach to steady-state and A0 is the initial blank absorbance at 405 nm. In order to determine inhibition modality and calculate inhibition constants obtained, steady-state rates from progress curves were subsequently fitted to the following steady-state velocity equation (Equation (2)) described by Robert A. Copeland [34] for noncompetitive inhibition:(2) v=vmax×[S]/[S]×(1+[I]/αKi)+Km×(1+[I]/Ki) where v is velocity; Vmax refers to the maximum velocity; [I] is concentration of inhibition; Km refers to Michaelis constant; α is constant.
(3) kobs=k4+(k3×[I]/Kiapp+[I]) (4) kon=k3/Ki (5) koff=k4 (6) Ki*=Ki/1+k3/k4 where k3 is forward enzyme isomerization rate constant; k4 is reverse enzyme isomerization rate constant, Ki^app is the apparent value of the Ki for the initial encounter complex. Ki was estimated using the following Cheng-prusoff equation (Equation (7)) as described previously for noncompetitive inhibition:(7) Kiapp=Ki×(1+[S]/Km)/((1+α)×([S]/Km))

[2] = test system: α-Glucosidase (Saccharomyces cerevisiae); test: Off-rate by rapid dilution approach; format: biochemical
Description: Among these BK parameters, the off-rate value of acarbose was determined by applying the rapid dilution approaches, which were readily available from the references [35, 49].

[3] = biological target: α-Glucosidase (Saccharomyces cerevisiae); test: IC50 determination, AGH enzyme inhibition assay (pNPG substrate); format: biochemical; settings: 15 min preincubation at 37 °C, 0.36 mM pNPG, mean ± SEM of three experiments
Description: Steady-state kinetic studies were carried out on a Multiskan FC Devices. The AGH activity was assayed by adding 50 μL of AGH solution to 300 μL of substrate solution (pNPG was used as the substrate) in 0.1 M PBS buffer (pH 6.8), followed by incubation at 37 °C for 30 min. The AGH activity was measured by monitoring an increase of the p-nitrophenol (pNP) released from substrate pNPG in absorbance at 405 nm.
AGH was preincubated with two tea polyphenols for 15 min at 37 °C, respectively. The reaction was started by the addition of the pNPG (0.36 mM final concentration), and the initial rate was measured by ultraviolet (UV) detector. Linearity of UV response was confirmed with correlation coefficients (R^2) of > 0.99. Data were the means ± standard error of the mean (SEM) of three independent experiments, and were fitted using standard four-parameter logistic models to measure IC50 values by JMP software (version 11.0.0, SAS Institute, Inc., Cary, NC, USA).

[4] = test system: α-Glucosidase (Saccharomyces cerevisiae); test: Surface plasmon resonance (SPR) binding kinetics, immobilized AGH; settings: 25 °C, 1:1 Langmuir model
Description: Surface plasmon resonance (SPR) experiments were performed to measure the BK parameters between compounds and AGH. After the activation of the surface using NHS and EDC (1:1, v/v), the AGH was immobilized on a CM5 sensor chip (GE healthcare) by using standard amine-coupling at 25 °C with running buffer PBS-P (20 mM phosphate buffer, […], 0.05% surfactant P-20, pH 7.4). The AGH concentration was fixed at 50 ng/µL and the immobilization level of AGH was about 8000 RU (response unit, 1 RU response value is roughly equivalent to 1 pg/mm^2 change of the concentration of the bound substance on the chip surface). After coupling, unreacted NHS ester groups were blocked with ethanolamine. Different concentrations of compounds containing 5% DMSO were serially injected into the channel to evaluate the BK parameters. A reference channel was only activated and blocked to eliminate compound unspecific binding to the surface of the chip. An extra wash with 50% DMSO was added to remove the last remaining sample in the pipeline. The on-rates and the off-rates of the compounds were obtained by fitting the data sets to 1:1 Langmuir binding model using the Biacore T200 Evaluation Software (GE Healthcare).

[5] = test system: α-Glucosidase (Saccharomyces cerevisiae); test: Steady-state velocity fit and double reciprocal plot (inhibition type); format: biochemical; settings: for constant α: Equation (2), noncompetitive inhibition; for type of inhibition: double reciprocal plot; for Ki: steady-state velocity fit, read-out: free AGH binding inhibition constant (Ki)
Description: The reaction progress of AGH inhibition by ECG was measured under the pseudo-first-order conditions ([I], initiated by the addition of 50 μL AGH to 300 μL of a mixture of tested compound and substrate and monitor the liberation of free pNP at 405 nm. The final pNPG concentrations ranged from 0.18 to 1.44 mM. The compound investigated concentrations were 0, 0.7, 1.4, 2.8, 5.6, 11.2 μM. The reading was recorded every 20 s during 4000 s and blank absorbance values were subtracted from the data before subsequent calculations. Similar experiments were performed with EGCG to measure its reaction progress curve. Progress curves were fitted to the equation (Equation (1)) described by Williams and Morrison to calculate kobs values for slow binding (i.e., time-dependent) inhibition. (1) A=vs×t+(vi−vs)(1−e^−kobs×t/kobs)+A0 where A is the absorbance; vi and vs are initial and steady-state velocities (expressed in A/time), respectively; t is time; kobs is the pseudo first order rate constant for the approach to steady-state and A0 is the initial blank absorbance at 405 nm. In order to determine inhibition modality and calculate inhibition constants obtained, steady-state rates from progress curves were subsequently fitted to the following steady-state velocity equation (Equation (2)) described by Robert A. Copeland [34] for noncompetitive inhibition:(2) v=vmax×[S]/[S]×(1+[I]/αKi)+Km×(1+[I]/Ki) where v is velocity; Vmax refers to the maximum velocity; [I] is concentration of inhibition; Km refers to Michaelis constant; α is constant.
The inhibition type of the tested compounds against AGH was determined using a double reciprocal plot of 1/v as a function of 1/[S] in terms of intersecting lines converging to the location of the y-axis and the x-axis.

[6] = test system: α-Glucosidase (Saccharomyces cerevisiae); test: Mutual exclusivity study (Yonetani-Theorell); format: biochemical; settings: combination of ECG with EGCG, Equation (8)
Description: Mutual exclusivity studies were performed by measuring the reaction velocity at several fixed concentrations of one investigated compound while titrating another tested compound with various concentrations, and data were evaluated by the method (Equation (8)) proposed by Yonetanii and Theorell that yielded a value of β for different noncompetitive inhibition by nonlinear regression analysis. (8) 1/vij=1/v0×(1+[I]/Ki+[J]/Kj+[I][J]/βKiKj) where vij is the enzyme velocity in the presence of both compounds at concentrations [I] and [J]; v0 is the velocity in the absence of compound; β is an interaction constant that defines the degree to which binding of one compound perturbs the affinity of the enzyme for the second compound.

[7] = progress curve analysis, two-step induced-fit model

| SMILES | kon ([1]; acarbose, Supplementary Table S2) | Dissociation Half-Life ([2]; ln2 divided by koff (rapid dilution)) | koff ([2]; rapid dilution approach) | IC50 [3] | binding mechanism [1] | Dissociation Half-Life [1] | time dependence of inhibition [1] | koff [1, 7] | kon [1, 7] | Ki ([1]; progress curve analysis) | koff [4] | kon [4] | constant α [5] | type of inhibition [5] | Ki [5] | β-value (interaction constant) [6] |
| --- | --- | --- | --- | --- | --- | --- | --- | --- | --- | --- | --- | --- | --- | --- | --- | --- |
| C[C@H]1O[C@H](O[C@H]2[C@H](O)[C@@H](O)[C@@H](O[C@H]3[C@H](O)[C@@H](O)C(O)O[C@@H]3CO)O[C@@H]2CO)[C@H](O)[C@@H](O)[C@@H]1N[C@H]1C=C(CO)[C@@H](O)[C@H](O)[C@H]1O (some centres unmarked) [Acarbose, acarbose] | 2.1 ± 0.3 10^6 M^−1s^−1 | 606 min | 1.9 ± 0.2 10^−5 s^−1 |  |  |  |  |  |  |  |  |  |  |  |  |  |
| O=C(O[C@@H]1Cc2c(O)cc(O)cc2O[C@@H]1c1ccc(O)c(O)c1)c1cc(O)c(O)c(O)c1 [ECG, Epicatechin gallate] |  |  |  | 1500 ± 300 nM | two-step induced-fit mechanism | 7.2 min | slow binding inhibitor | 1.6 ± 0.3 10^−3 s^−1 | 0.2 ± 0.05 10^3 M^−1s^−1 | 1000 ± 300 nM | 0.0073 s⁻¹ | 6300 M⁻¹ s⁻¹ | 1.3 | noncompetitive inhibitor | 1100 nM | 4133197 |
| O=C(O[C@@H]1Cc2c(O)cc(O)cc2O[C@@H]1c1cc(O)c(O)c(O)c1)c1cc(O)c(O)c(O)c1 [EGCG, epigallocatechin gallate] |  |  |  | 410 ± 100 nM | two-step induced-fit mechanism | 6 min | slow binding inhibition | 1.9 ± 0.2 10^−3 s^−1 | 2.4 ± 0.3 10^3 M^−1s^−1 | 160 ± 30 nM | 0.0038 s⁻¹ | 5700 M⁻¹ s⁻¹ | 5.6 | noncompetitive inhibitor | 200 nM | 4133197 |
